Measurements taken from patent publication US20200129450A1, “COMPOSITION COMPRISING OSMUNDACETONE OR PHARMACEUTICALLY ACCEPTABLE SALT THEREOF FOR PREVENTING OR TREATING BONE DISEASE” (KORPHARM CO., LTD., priority 2016, published 2020).
Where “and” joins values, the source holds several entries; their conditions need not be identical. Equal values may be shown once.

Columns and labels:
RUNX2 in MC3T3-E1 cells = assay: Western blot, RUNX2 expression; type: cell-based, mouse; settings: 50 μM
Description: (§1) In order to analyze the expression of osteoblast differentiation markers during a differentiation procedure, 3×10^5 MC3T3-E1 cells were dispensed in a 100 mm culture plate together with 10 mL of complete α-MEM containing ascorbic acid (50 μg/mL) and 10 mM R-glycerophosphate per well. Here, 50 μM osmundacetone was added or not added, and the cells were incubated at 37 […] in a 5% CO2 incubator for 21 days while the medium was exchanged every 3-4 days.
(§2) The negative control cells were cultured without differentiation factors, and the osteoblasts and a culture thereof were dispensed, and then collected on day 7, 14, or 21.
(§3) The cells were lysed using RIPA buffer, and then the expression of runt-related transcription factor 2 (RUNX2) was analyzed. Also for analysis of OCN secretion, the culture was collected, and normalized by cellular DNA.
(§4) Proteins were analyzed using SDS-PAGE on 12.5% […] gels, and transferred on polyvinylidene difluoride (PVDF) membrane through electrophoresis.
The membrane was blocked using non-fat milk, and examined using anti-RUNX2 (D1H7) rabbit monoclonal antibody (#8486, Cell Signaling Technology, MA, USA) or anti-OCN (FL-95) antibody (# sc-30045, Santa Cruz Biotechnology, TX, USA). Anti-actin antibody (# M177-3, MEDICAL & BIOLOGICAL LABORATORIES CO., LTD., Nagoya, Aichi, Japan) was used as an internal reference.
Protein bands on the blot were visualized using an enhanced chemiluminescent detection kit (# EBP-1073, PicoEPD Western Reagent, ELPIS-BIOTECH, Daejeon, Korea).

[1] = system: ALP activity of MC3T3-E1 osteoblasts in co-incubation; assay: Co-culture of osteoclasts and osteoblasts: ALP activity; type: cell-based, mouse; settings: 10 μM, vs non-treated
Description: (§5) 1×10^5 C57BL/6 mouse bone marrow mononuclear cells per well of a 48-well plate were prepared in the same manner as described above, and co-incubated together with 1.5×10^4 MC3T3-E1 murine osteoblasts, using 500 μL of α-MEM containing 10% FBS and 1% antibiotic (100 U/mL penicillin G and […] streptomycin) in the conditions of 37° C. and 5% CO2 while the medium was exchanged every three days.
(§6) Positive control cells were co-incubated together with osteoclast differentiation factors M-CSF (60 ng/mL) and RANKL (150 ng/mL), and osteoblast differentiation factors ascorbic acid (50 μg/mL) and 10 mM R-glycerophosphate.
(§7) Negative control cells were incubated by adding only M-CSF as a differentiation factor. In order to examine effects of osmundacetone on the differentiation of osteoclasts and osteoblasts, osmundacetone were administered at a final concentration of 10 μM into the positive control cells on day 1 after the cells were dispensed on the plate.
(§8) ALP activity was assessed using Quantichrom ALP Assay Kit (Bioassay Systems, Hayward, Calif., USA) according to manufacturer's instructions.
[…] The % activation of ALP activity was shown by comparing ALP activity of cells treated with an experimental compound and ALP activity of the non-treated control cells.
In order to investigate whether or not osmundacetone has ability to inhibit osteoclast differentiation and activate osteoblast differentiation simultaneously, bone marrow mononuclear cells collected from C57BL/6 mice and MC3T3-E1 cells as osteoblast precursor cells were co-incubated in a 48-well plate at cell concentrations of 1×10^5 bone marrow cells and […] MC3T3-E1 cells per well. The bone marrow monocyte/macrophage lineage cells in the co-incubated bone marrow cells and osteoblast precursor cells differentiated into mature multinuclear osteoclasts in the presence of M-CSF and RANKL within 6-7 days.

OCN in MC3T3-E1 cells = assay: Western blot, OCN production by osteoblasts; type: cell-based, mouse; settings: 50 μM
Description: as §1, §2, §3, §4
The membrane was blocked using non-fat milk, and examined using anti-RUNX2 (D1H7) rabbit monoclonal antibody (#8486, Cell Signaling Technology, MA, USA) or anti-OCN (FL-95) antibody (# sc-30045, Santa Cruz Biotechnology, TX, USA). Anti-actin antibody (# M177-3, MEDICAL & BIOLOGICAL LABORATORIES CO., LTD., Nagoya, Aichi, Japan) was used as an internal reference. […]

ALP activity in MC3T3-E1 = assay: Measurement of ALP activity in MC3T3-E1; type: cell-based, mouse; settings: MC3T3-E1, day 14, mean±s.d.
Description: as §8
Briefly, 3×10^3 MC3T3-E1 cells were dispensed in a 96-well plate together with […] of complete α-MEM containing ascorbic acid (50 μg/mL) and 10 mM β-glycerophosphate per well. Here, osmundacetone (10 μM and 50 μM) was added or not added, and the medium was exchanged every 3-4 days.
On day 14 of the incubation, the colorimetric change due to ALP activity in the cell fraction was measured using a spectrophotometer plate reader (Molecular Devices, Sunnyvale, Calif., USA) at 405 nm (Kim et al., 2016). The % activation of ALP activity was shown by comparing ALP activity of cells treated with an experimental compound and ALP activity of the non-treated control cells.

[2] = system: osteoclasts co-incubated with MC3T3-E1 cells; assay: Co-culture of osteoclasts and osteoblasts: osteoclast proliferation and differentiation; type: cell-based, mouse; settings: 10 μM
Description: as §5, §6, §7
In order to investigate whether or not osmundacetone has ability to inhibit osteoclast differentiation and activate osteoblast differentiation simultaneously, bone marrow mononuclear cells collected from C57BL/6 mice and MC3T3-E1 cells as osteoblast precursor cells were co-incubated in a 48-well plate at cell concentrations of 1×10^5 bone marrow cells and 3×10^3 MC3T3-E1 cells per well. […]

B16F10 mouse melanoma = assay: MTT assay cytotoxicity; type: cell-based; settings: B16F10, 24 hours
Description: (§9) HaCaT human epidermal keratinocytes, # ATCC PCS-200-011) were incubated using Dulbecco's modified Eagle's medium (DMEM, # DMEM-HPA, Capricorn Scientific, Ebsdorfergrund, Germany) in the conditions of 37° C. and 5% CO2. NIH3T3 mouse embryo fibroblasts (# KCLB 21658), RAW264.7 murine macrophages (preosteoclast cell line, # KCLB 40071), HCT116 human colon cancer cells (# KCLB 10247), PC3 human prostate adenocarcinoma cells (# KCLB 21435), HT1080 human fibrosarcoma cells (# KCLB 1121), and B16F10 mouse malignant melanoma cells (# KCLB 80008) were purchased from the Korean Cell Line Bank, and incubated using DMEM in the conditions of 37° C. and 5% C02.
(§10) The compound isolated from Osmunda japonica, prepared in section 1 of <Example 1>, was investigated for cytotoxicity using MTT assay.
(§11) MTT assay was as follows.
(§12) Cells were incubated at 1×10^3 cells/well in a 96-well plate containing DMEM with 10% fetal bovine serum (FBS) at 5% CO2 and 37° C., and then osmundacetone was added to the cell medium, followed by incubation for 24 hours. Thereafter, 100 μL of MTT (0.5 mg/ml PBS) was administered, followed by incubation for 2 hours. […] After incubation for 10 minutes, the absorbance was measured using a microplate reader (SPCTRA MAX 340PC, Molecular Devices, USA) at 570 nm. The absorbance is an indicator showing the number of living cells, and calculated by the following equation. […]

[3] = system: NIH3T3 mouse embryo fibroblasts; assay: MTT assay cytotoxicity; type: cell-based; settings: NIH3T3, 24 hours, read-out: IC50 according to MTT assay
Description: as §9, §10, §11, §12

Structure (SMILES): CC(=O)/C=C/c1ccc(O)c(O)c1 [Osmundacetone, (3E)-4-(3,4-dihydroxyphenyl)-3-buten-2-one]
- RUNX2 expression level, increase compared with non-treated positive control group (RUNX2 in MC3T3-E1 cells; day 7): 1.1 times
- RUNX2 expression level, increase compared with non-treated positive control group (RUNX2 in MC3T3-E1 cells; day 14): 1.1 times
- RUNX2 expression level, increase compared with non-treated positive control group (RUNX2 in MC3T3-E1 cells; day 21): 2.1 times
- % activation of ALP activity in co-incubation ([1]; day 7 of co-incubation): 104%
- % activation of ALP activity in co-incubation ([1]; day 14 of co-incubation): 111%
- % activation of ALP activity in co-incubation ([1]; day 21 of co-incubation): 95%
- OCN production by osteoblasts, increase compared with non-treated positive control cells (OCN in MC3T3-E1 cells; day 14): 2.9 times
- OCN production by osteoblasts, increase compared with non-treated positive control cells (OCN in MC3T3-E1 cells; day 21): 1.2 times
- % Activation of ALP activity (ALP activity in MC3T3-E1; 10 μM): 115 ± 9.4%
- % Activation of ALP activity (ALP activity in MC3T3-E1; 50 μM): 279 ± 61 %
- % Activation of ALP activity (ALP activity in MC3T3-E1; 50 μM, listed as osmundacetone): 279±61% and 280%
- proliferation and differentiation of osteoclasts in co-incubation [2]: completely inhibited
- mature osteoclasts in co-incubation ([2]; day 6 after administration): completely disappeared
- LD50 (MTT assay) (B16F10 mouse melanoma): 75.8 ± 9.2 µM
- IC50 [3]: > 5 mM
